Experimental data reported in EP4813993A1, “COMPOUND, PREPARATION METHOD THEREFOR, AND USE THEREOF” (Sichuan Kelun Pharmaceutical Research Institute Co., Ltd., priority 2023, dated 2025).

Assays:
[1] = Pharmacokinetic study in ICR mice; assay type: in vivo; conditions: male, mouse, plasma
[2] = tested on: spinal nerve ligation model (SNL); assay: Rat spinal nerve ligation model (SNL), Von Frey test; assay type: in vivo, SD rats; conditions: for PWT 50% value (g) Post-surgery, Preadministration / PWT 50% value (g) Pre-surgery / PWT 50% value (g) Time 0.5 h / PWT 50% value (g) Time 2 h / PWT 50% value (g) Time 4 h / PWT 50% value (g) Time 6 h / PWT 50% value (g) Time 8 h / PWT 50% value (g) AUC0-8h: SD rats SNL, Mean + SEM, n = 10; for PWT 50% value (g) Post-surgery, Preadministration: baseline before administration; for PWT 50% value (g) Pre-surgery: baseline before surgery; for PWT 50% value (g) Time 0.5 h: 0.5 h after administration; for PWT 50% value (g) Time 2 h: 2 h after administration; for PWT 50% value (g) Time 4 h: 4 h after administration; for PWT 50% value (g) Time 6 h: 6 h after administration; for PWT 50% value (g) Time 8 h: 8 h after administration
Protocol: Experimental Example 8: Pharmacodynamic effect study of compounds in rat spinal nerve ligation model (SNL) Experimental animals: SD rats, male, 180-220 g.
Compound preparation: 5% (final preparation volume) of DMSO was added to dissolve the test compound, and then 10% (final preparation volume) of Cremophor EL and 85% Saline were sequentially added.
SD rats were anesthetized with isoflurane via inhalation. Each rat was placed in a prone position, and the hair at the surgical site was shaved locally. The surgical site was disinfected with alcohol and iodophor. Under sterile conditions, a 3-4 cm longitudinal incision was made at the level of the lower lumbar/upper sacrum to expose the left paravertebral muscles. Using small sharp-blunt scissors, the paravertebral muscles were bluntly dissected, and the transverse process of L6 was excised. The L4 and L5 spinal nerves were isolated and exposed, and the L5 spinal nerve was ligated with 6-0 silk sutures. The surgical wound was treated with ceftriaxone for anti-inflammation and infection prevention. The muscles and skin were sutured layer by layer, followed by disinfection with iodophor. After the surgery, the animals were placed on a warm electric blanket for heat preservation and returned to the cages for rearing after complete recovery from anesthesia. Postoperative behavioral observations were performed.
2. Administration and test
The Von Frey test was performed once before the surgery. On the 5th and 6th days after surgery, paw-lifting training was performed once each day. Animals with a baseline of 2-5 g were selected for enrollment and grouped based on the 50% PWT values, with 10 animals per group. The next day, a single dose was administered in a blinded manner. The 50% PWT of the animals was measured separately before administration (baseline) and at 0.5 h, 2 h, 4 h, 6 h, or 8 h after administration. The model control group was given normal saline, while the compound groups were given the compounds according to the administration doses in the table below.

formalin pain model = assay: Rat formalin pain model; assay type: in vivo, SD rats; conditions: for Number of pain responses 0 min / Number of pain responses 10 min / Number of pain responses 15 min / Number of pain responses 30 min / Number of pain responses 40 min / Number of pain responses 50 min / Number of pain responses 60 min: SD rats, Mean + SD, n = 10
How it was run: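 Male SD rats (180-200 g, n=10/group) dosed 0, 60 or 120 min before 50 µL 5% formalin into right plantar region. Pain responses counted for 1 min every 5 min over 60 min; inhibition rate relative to vehicle control group.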

incision pain model = assay: Incision pain model in ICR mice, Von Frey test; assay type: in vivo; conditions: 50 mg/kg single dose, Mean + SEM, n = 10
[3] = 50 mg/kg p.o. 120 min before 5% formalin
[4] = 125 mg/kg p.o. 120 min before 5% formalin

Q: What does the source list for `COc1c(C2CC(C)(C(F)(F)F)SC2C(=O)Nc2ccnc(C(N)=O)c2)ccc(F)c1F` (single isomer, unassigned) [Compound 139-A, 4-(3-(3,4-difluoro-2-methoxyphenyl)-5-methyl-5-(trifluoromethyl)tetrahydrothiophene-2-carboxamido)picolinamide]?
A: AUC(0-inf) ([1]; Oral administration (p.o.), 20 mg/kg): 24800 ng·h/mL; AUC(0-inf) ([1]; iv, Injection (i.v.), 2 mg/kg): 3080 ng·h/mL; PWT 50% value (g) Post-surgery, Preadministration ([2]; 50 mg/kg group): 2.68 ± 1.05 g; PWT 50% value (g) Pre-surgery ([2]; 50 mg/kg group): 14.94 ± 2.38 g; PWT 50% value (g) Time 0.5 h ([2]; 50 mg/kg single dose): 5.78 ± 2.76 g; PWT 50% value (g) Time 2 h ([2]; 50 mg/kg single dose): 8.76 ± 2.47 g; PWT 50% value (g) Time 4 h ([2]; 50 mg/kg single dose): 7.73 ± 4.32 g; PWT 50% value (g) Time 6 h ([2]; 50 mg/kg single dose): 4.9 ± 1.61 g; PWT 50% value (g) Time 8 h ([2]; 50 mg/kg single dose): 3.57 ± 1.44 g; PWT 50% value (g) AUC0-8h ([2]; 50 mg/kg single dose): 50.59 ± 15.71 g; PWT 50% value (g) Post-surgery, Preadministration ([2]; 125 mg/kg group): 2.68 ± 1 g; PWT 50% value (g) Pre-surgery ([2]; 125 mg/kg group): 13.83 ± 3.18 g; PWT 50% value (g) Time 0.5 h ([2]; 125 mg/kg single dose): 6.96 ± 3.34 g; PWT 50% value (g) Time 2 h ([2]; 125 mg/kg single dose): 9.61 ± 3.73 g; PWT 50% value (g) Time 4 h ([2]; 125 mg/kg single dose): 7.26 ± 3.19 g; PWT 50% value (g) Time 6 h ([2]; 125 mg/kg single dose): 5.01 ± 1.63 g; PWT 50% value (g) Time 8 h ([2]; 125 mg/kg single dose): 3.88 ± 1.67 g; PWT 50% value (g) AUC0-8h ([2]; 125 mg/kg single dose): 52.87 ± 15.06 g; dose-effect relationship ([2]; rat SNL model): relatively good dose-effect relationship; differences compared with the model group ([2]; rat SNL model, all time points): significant differences compared with the model group at all time points; Number of pain responses 0 min (formalin pain model; [3]): 35.6±6.7; Number of pain responses 10 min (formalin pain model; [3]): 1.7±2.5; Number of pain responses 15 min (formalin pain model; [3]): 6.8±3.9; Number of pain responses 30 min (formalin pain model; [3]): 15.1±4.4; Number of pain responses 40 min (formalin pain model; [3]): 12.7±5.9; Number of pain responses 50 min (formalin pain model; [3]): 6.1±5.2; Number of pain responses 60 min (formalin pain model; [3]): 2.7±2.6; Number of pain responses 0 min (formalin pain model; [4]): 25.5±13.6; Number of pain responses 10 min (formalin pain model; [4]): 1.1±1.1; Number of pain responses 15 min (formalin pain model; [4]): 4.3±2.7; Number of pain responses 30 min (formalin pain model; [4]): 11.7±6.3; Number of pain responses 40 min (formalin pain model; [4]): 4.8±3.9; Number of pain responses 50 min (formalin pain model; [4]): 1.8±1.8; Number of pain responses 60 min (formalin pain model; [4]): 1.8±1.2; dose-effect relationship (formalin pain model; rat formalin pain model): relatively good dose-effect relationship; analgesic activity in the first and second phases (formalin pain model; rat formalin pain model, first phase immediately after injection, second phase about 15-20 min after): significant analgesic activity in both the first and second phases; PWT 50% value (g) AUC0-8h (incision pain model): 5.45 ± 1.62 g·h
